The record followed here is ChEMBL document CHEMBL1147837, “Methyl 2-(2-(4-formylphenoxy)acetamido)-2-substituted acetate derivatives: a new class of acetylcholinesterase inhibitors” (Bioorg Med Chem Lett, 2007).

Test [1] has as its target Acetylcholinesterase (Torpedo californica, UniProt P04058). The test is described as follows: Inhibition of AChE.
Test [2] can be described thus: Selectivity for Torpedo californica AChE over horse BuChE.
Test [3] deals with Butyrylcholinesterase (Equus caballus, UniProt Q9N1N9). Put plainly: Inhibition of BuChE in horse serum.

Usually IC50 stands for the midpoint of a concentration-inhibition curve. Read a low IC50 as higher potency.

Acetylcholinesterase, sequence (P04058 whole entry): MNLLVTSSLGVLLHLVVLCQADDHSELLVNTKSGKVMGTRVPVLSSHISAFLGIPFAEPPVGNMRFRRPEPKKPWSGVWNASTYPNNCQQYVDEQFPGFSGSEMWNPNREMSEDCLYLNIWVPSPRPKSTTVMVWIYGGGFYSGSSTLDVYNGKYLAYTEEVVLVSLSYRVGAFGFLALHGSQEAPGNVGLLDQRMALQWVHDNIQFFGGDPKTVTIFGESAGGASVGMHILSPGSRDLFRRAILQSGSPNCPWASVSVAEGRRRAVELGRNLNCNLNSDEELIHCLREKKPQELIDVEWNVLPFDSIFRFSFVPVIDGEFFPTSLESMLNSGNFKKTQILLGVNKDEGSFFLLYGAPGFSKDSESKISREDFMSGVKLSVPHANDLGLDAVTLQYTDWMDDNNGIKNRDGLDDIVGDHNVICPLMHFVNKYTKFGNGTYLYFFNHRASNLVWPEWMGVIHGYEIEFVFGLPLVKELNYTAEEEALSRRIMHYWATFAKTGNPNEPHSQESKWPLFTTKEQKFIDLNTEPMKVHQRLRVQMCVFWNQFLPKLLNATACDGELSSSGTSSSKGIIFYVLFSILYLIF
Butyrylcholinesterase, sequence (Q9N1N9 whole entry): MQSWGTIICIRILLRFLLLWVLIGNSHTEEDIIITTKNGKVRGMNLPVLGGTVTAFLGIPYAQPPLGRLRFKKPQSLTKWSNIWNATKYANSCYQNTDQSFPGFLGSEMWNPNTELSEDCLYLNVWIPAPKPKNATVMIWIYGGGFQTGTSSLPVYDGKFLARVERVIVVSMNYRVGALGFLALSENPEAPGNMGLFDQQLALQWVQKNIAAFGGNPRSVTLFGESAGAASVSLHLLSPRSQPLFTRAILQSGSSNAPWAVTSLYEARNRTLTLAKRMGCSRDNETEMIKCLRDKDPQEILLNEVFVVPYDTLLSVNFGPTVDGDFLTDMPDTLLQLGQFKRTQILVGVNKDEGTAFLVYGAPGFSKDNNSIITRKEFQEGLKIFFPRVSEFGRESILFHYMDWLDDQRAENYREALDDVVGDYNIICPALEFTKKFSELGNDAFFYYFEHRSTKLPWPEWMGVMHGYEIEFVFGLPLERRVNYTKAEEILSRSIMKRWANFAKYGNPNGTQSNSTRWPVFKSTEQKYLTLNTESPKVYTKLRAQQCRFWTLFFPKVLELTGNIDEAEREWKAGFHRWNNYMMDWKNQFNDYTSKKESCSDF

In test [1], `COC(=O)CNC(=O)COc1ccc(C=O)cc1` showed an IC50 of 98.9 µM. That is a double-digit micromolar value. Consider `COC(=O)C(Cc1c[nH]c2ccccc12)NC(=O)COc1ccc(C=O)cc1` (stereo not drawn), for which the results for the IC50 in test [1] and in test [3] were 0.28 µM and 33.9 µM, respectively. Further, in test [2], the Ratio IC50 worked out at 121. Regarding `COC(=O)C(C)NC(=O)COc1ccc(C=O)cc1` (stereo not drawn), in test [1], the IC50 was 0.19 µM. In other words, the sub-micromolar range. In the case of `COC(=O)C(Cc1ccccc1)NC(=O)COc1ccc(C=O)cc1` (stereo not drawn), the IC50 in test [1] stood at 4.96 µM. This IC50 is about 26-fold higher than that of the compound before. Turning to `O=Cc1ccc(O)cc1` [4-HYDROXYBENZALDEHYDE], the IC50 in test [1] is > 1000 µM. For `COC(=O)CCC(NC(=O)COc1ccc(C=O)cc1)C(=O)OC` (stereo not drawn), the IC50 in test [1] was > 200 µM.
